From PMC9290507, “Rh^II‐Catalyzed De‐symmetrization of Ethane‐1,2‐dithiol and Propane‐1,3‐dithiol Yields Metallo‐β‐lactamase Inhibitors” (Chemmedchem, 2021)

Key:
VIM‐1 = target: T1, VIM‐1 (Pseudomonas aeruginosa, UniProt A0A0F7KYQ8); experiment: Fluorescence-based enzyme activity assay (Fluorocillin), VIM-1; assay type: biochemical; settings: for Effect of added zinc ions on inhibitory activity (VIM-1): 10 μM compound, additional 100 μM ZnCl2 in assay buffer
T1 construct: made in house
Protocol: (§1) In order to investigate the structure‐activity relationships of the dithiol library, we measured the inhibitory activity of 3 a–x in a fluorescence‐based enzyme activity assay (Table 1). Two relevant β‐lactamase isoforms, NDM‐1 and VIM‐1 were selected for in vitro assays. The fluorogenic substrate fluorocillin[15] was prepared according to literature and its conversion was monitored as described previously.[6] In general, a linear relationship between the potency of 3 a–x towards both enzymes could be observed, however, inhibitory potency towards VIM‐1 was almost tenfold higher (Figure 3). A very clear preference for the propane‐1,3‐dithiol over ethane‐1,2‐dithiol compounds could be observed from matched molecular pairs.
(§2) Activity assays for MBLs were performed at room temperature in black polystyrol 96well plates (Corning, Corning, NY, USA) using dicefalotinodifluorofluorescein (Fluorocillin) as a substrate. Proteins were diluted in assay buffer (HEPES 50 mM, pH 7.5 containing 0.01 %Triton X‐100), with final protein concentrations of NDM‐1: 3 nM, or VIM‐1: 4 nM. Samples were supplemented with an equimolar amount of ZnCl2. An amount of 1 μL of compounds 3 a–3 x at different concentrations was incubated with 89 μL of enzyme in assay buffer. After an incubation period of 30 min at room temperature, 10 μL of Fluorocillin substrate was added to yield the final assay volume of 100 μL. Final concentration of DMSO was 1 %. The fluorescence emitted by the fluorescent product difluorofluorescein was monitored every 45 s for 30 cycles using a Tecan fluorescent plate reader (Infinite 200; excitation at 495 nm and emission at 525 nm) and was compared with a standard curve. The rate of the enzymatic reaction was obtained by dividing the quantity of the fluorescent product (RFU) by time (min). Negative controls were measured in the absence of enzyme, whereas the positive controls were measured in the presence of enzyme and in the absence of inhibitors. The inhibitory effect of each substance was measured in triplicate in three independent experiments. IC50 values were calculated using data obtained from measurements with at least eight different inhibitor concentrations, applying a sigmoidal dose–response (variable slope with four parameters) equation using GraphPad Prism 5 (GraphPad Software, La Jolla, CA, USA) software. In order to investigate the inhibitory activity of 3 a, 3 o, or 3 s in the presence of a high Zn^2+ concentration, assay buffer containing an additional 100 μM ZnCl2 was used. The assay was performed as described above with NDM‐1 or VIM‐1 and 10 μM of 3 a, 3 o, or 3 s.

NDM‐1 = target: T2, NDM‐1 (Klebsiella pneumoniae, UniProt C7C422); experiment: Fluorescence-based enzyme activity assay (Fluorocillin), NDM-1; assay type: biochemical; settings: for Effect of added zinc ions on inhibitory activity (NDM-1): 10 μM compound, additional 100 μM ZnCl2 in assay buffer
T2 construct: made in house
T2 sequence (C7C422 29-270, looked up, species assumed): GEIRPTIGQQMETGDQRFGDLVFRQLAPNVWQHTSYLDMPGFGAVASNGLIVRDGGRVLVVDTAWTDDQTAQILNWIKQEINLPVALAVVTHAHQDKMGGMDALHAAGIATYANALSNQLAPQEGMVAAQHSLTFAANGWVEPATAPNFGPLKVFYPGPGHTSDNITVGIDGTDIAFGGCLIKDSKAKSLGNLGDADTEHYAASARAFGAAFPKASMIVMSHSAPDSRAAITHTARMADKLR
Protocol: as §1, §2

E. coli VIM‐1 (T2544) [1] = experiment: Checkerboard synergy assay with imipenem, E. coli VIM-1; assay type: cell-based; settings: for Imipenem MIC: E. coli VIM-1 (T2544); for Reduction of the MIC of imipenem: VIM-1 producing bacteria, maximal reduction
Protocol: (§3) To investigate this, the MIC of imipenem or combined with various concentrations of compound 3a, 3o, or 3 s was determined against E. coli transformants producing NDM‐1 or VIM‐1 (Table 3 and 4).
(§4) Minimal inhibitory concentrations (MICs) of imipenem monohydrate (Sigma‐Aldrich)±compound 3 a, 3 o, or 3 s against transformed E. coli strains producing NDM‐1 or VIM‐1 were determined according to microdilution method established by Clinical and Laboratory Standards Institute (CLSI).^20 The checkerboard assay was performed to test for synergy in vitro. The microtiter‐plates were set up with serial doubling dilutions of compound 3 a, 3 o, or 3 s (2‐128 mg/L) and imipenem (0.125‐128 mg/L).

VIM‐2 = target: T3, VIM‐2 (Escherichia coli, UniProt Q5U7L7); experiment: Kd determination using isothermal titration calorimetry; assay type: binding; settings: ITC, 250 μM compound into 50 μM VIM-2, 25 °C; for Kd: inset of Figure 6
T3 construct: made in house
Protocol: The next step was the investigation of the binding thermodynamics of 3 a, 3 o, and 3 s. For these experiments we used a closely related enzyme VIM‐2 which is an isoform of VIM‐1 and can be recombinantly expressed in very high concentrations, suitable tor isothermal titration calorimetry (ITC) experiments (Figure 6).
VIM‐2 expression and purification was published elsewhere.[19] Before the measurement the VIM‐2 protein was dialyzed against 500 times the volume of buffer (50 mM Tris, 500 mM NaCl, 5 % (v/v) glycerol with a pH=8) using a dialysis membrane with a 3.5 kDa MWCO. For the measurements the compounds 3 a, 3 o, or 3 s, respectively, were diluted using the dialyses buffer to a final concentration of 250 μM containing a final DMSO concentration of 1 %. The VIM‐2 protein was diluted to a final concentration of 50 μM, supplemented with 1 % DMSO using the dialysis buffer and pure DMSO. For the control measurements dialysis buffer was supplemented with pure DMSO to a final concentration of 1 %. The measurements were performed using an “Affinity ITC” (TA‐Instruments) in reversed mode, with a stir rate of 75 rpm and a temperature of 25 °C. The VIM‐2 was placed in the cell and the respective compound in the syringe. For blank measurements either the protein or compound dilution were exchanged with buffer containing 1 % DMSO. For the measurements of 3 a and 3 s one time 0.5 μl was injected followed by 50 injections of 2 μl with a spacing of 240 s. 3 o was measured with one injection of 0.5 μl followed by 35 injections of 2 μl with a spacing of 240 s. The data were analyzed using the “NanoAnalyze Data Analysis” software (version 3.10.0; TA‐Instruments).

E. coli NDM‐1 (T2359) [2] = experiment: Intrinsic antimicrobial activity (MIC, CLSI microdilution), E. coli NDM-1; assay type: cell-based; settings: for MIC: Escherichia coli; for Intrinsic antimicrobial activity: compound alone, E. coli transformants producing NDM-1 or VIM-1 (Table 2)
Protocol: as §4

E. coli NDM‐1 (T2359) [3] = experiment: Checkerboard synergy assay with imipenem, E. coli NDM-1; assay type: cell-based; settings: for Imipenem MIC: E. coli NDM-1 (T2359); for Reduction of the MIC of imipenem: NDM-1 producing bacteria, maximal reduction
Protocol: as §3, §4

E. coli VIM‐1 (T2544) [4] = experiment: Intrinsic antimicrobial activity (MIC, CLSI microdilution), E. coli VIM-1; assay type: cell-based; settings: Escherichia coli
Protocol: as §4

| SMILES | IC50 (VIM‐1) [nM] | Effect of added zinc ions on inhibitory activity (VIM-1) (VIM‐1) | IC50 (NDM‐1) [nM] | Effect of added zinc ions on inhibitory activity (NDM-1) (NDM‐1) | Imipenem MIC (E. coli VIM‐1 (T2544) [1]; +2 μg/ml compound) [µg/mL] | Imipenem MIC (E. coli VIM‐1 (T2544) [1]; +4 μg/ml compound) [µg/mL] | Imipenem MIC (E. coli VIM‐1 (T2544) [1]; +8 μg/ml compound) [µg/mL] | Imipenem MIC (E. coli VIM‐1 (T2544) [1]; +16 μg/ml compound) [µg/mL] | Imipenem MIC (E. coli VIM‐1 (T2544) [1]; +32 μg/ml compound) [µg/mL] | Imipenem MIC (E. coli VIM‐1 (T2544) [1]; +64 μg/ml compound) [µg/mL] | Imipenem MIC (E. coli VIM‐1 (T2544) [1]; +128 μg/ml compound) [µg/mL] | Reduction of the MIC of imipenem (E. coli VIM‐1 (T2544) [1]) [fold] | ΔH (VIM‐2) [kcal/mol] | Kd (VIM‐2) [nM] | MIC (E. coli NDM‐1 (T2359) [2]) [µg/mL] | Intrinsic antimicrobial activity (E. coli NDM‐1 (T2359) [2]) | Imipenem MIC (E. coli NDM‐1 (T2359) [3]; +2 μg/ml compound) [µg/mL] | Imipenem MIC (E. coli NDM‐1 (T2359) [3]; +4 μg/ml compound) [µg/mL] | Imipenem MIC (E. coli NDM‐1 (T2359) [3]; +8 μg/ml compound) [µg/mL] | Imipenem MIC (E. coli NDM‐1 (T2359) [3]; +16 μg/ml compound) [µg/mL] | other results |
| --- | --- | --- | --- | --- | --- | --- | --- | --- | --- | --- | --- | --- | --- | --- | --- | --- | --- | --- | --- | --- | --- |
| O=C1C(SCCCS)CCN1c1ccccc1 (centres unmarked) [3 o, 3‐((3‐Mercaptopropyl)thio)‐1‐phenylpyrrolidin‐2‐one] | 20 | does not impair the inhibitory activity | 300 ± 40 | does not impair the inhibitory activity | 16 | 16 | 16 | 16 | 8 | 2 | 1 | ≤ 32 | -11.7 | 534 | > 512 | no intrinsic antimicrobial activity | 128 | 128 | 128 | 128 | Imipenem MIC (E. coli NDM‐1 (T2359) [3]; +32 μg/ml compound): 32 µg/mL; Imipenem MIC (E. coli NDM‐1 (T2359) [3]; +64 μg/ml compound): 32 µg/mL; Imipenem MIC (E. coli NDM‐1 (T2359) [3]; +128 μg/ml compound): 16 µg/mL; Reduction of the MIC of imipenem (E. coli NDM‐1 (T2359) [3]): up to 8 fold; MIC (E. coli VIM‐1 (T2544) [4]): > 512 µg/mL |
| O=C1C(SCCCS)CCN1c1nccs1 (centres unmarked) [3 s, 3‐((3‐Mercaptopropyl)thio)‐1‐(thiazol‐2‐yl)pyrrolidin‐2‐one] | 40 ± 10 | does not impair the inhibitory activity | 390 ± 50 | does not impair the inhibitory activity | 32 | 16 | 16 | 16 | 8 | 4 | 2 | ≤ 32 | -6.45 | 166 | > 512 | no intrinsic antimicrobial activity | 128 | 128 | 64 | 64 | Imipenem MIC (E. coli NDM‐1 (T2359) [3]; +32 μg/ml compound): 64 µg/mL; Imipenem MIC (E. coli NDM‐1 (T2359) [3]; +64 μg/ml compound): 32 µg/mL; Imipenem MIC (E. coli NDM‐1 (T2359) [3]; +128 μg/ml compound): 16 µg/mL; Reduction of the MIC of imipenem (E. coli NDM‐1 (T2359) [3]): up to 8 fold; MIC (E. coli VIM‐1 (T2544) [4]): > 512 µg/mL |
